# Entries after “also recorded” stand apart in the source; their conditions may differ. Marks after values point to notes of the source that are not given here.
# Tests used:
# [1] = test system: AP-1; experiment: PMA-induced AP-1 luciferase expression in HEK cells; format: cell-based; conditions: for AP-1 % inhibition: PMA-induced, compound added 1 h before inducer, luciferase 24 h later, normalized to DMSO vehicle
# [2] = test system: carageenan-induced edema; experiment: Carrageenan-induced rat paw edema test (anti-inflammatory activity); format: in vivo, Sprague-Dawley rats
# Method in brief: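 Edema was raised by sub-plantar injection of 1% carrageenan into the right hind paw, 1 h after dosing 18 h-fasted male/female Sprague-Dawley rats (150-250 g) with 50 mg/kg p.o. in 0.1% CMC. Swelling was measured by displacement 3 h later and expressed as % protection against saline control.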
# [3] = test system: eIF4E; experiment: eIF4E inhibitor screen: luciferase under FGF 5′UTR in FaDu cells (highly cap-dependent translation); format: cell-based; conditions: for luciferase expression under the control of the FGF 5′UTR: 1.0 μM, 48 h, FaDu UTR cells, normalized to DMSO (FIG. 8)
# Description: Since highly cap-dependent translation is associated with synthesis of proteins involved in cancer, a compound that inhibits this pathway may be used as an anti-cancer agent. The assay was developed by cloning the highly structured 5′ UTR of FGF, which requires high levels of eIF4E before protein synthesis can initiate, into the proper orientation of the reporter gene luciferase, and then stably transfecting the modified luciferase gene into the cell line FaDu that is known to have high levels of eIF4E. The activity of luciferase is then monitored in the presence and absence of the tested compound.
# Generation of Stable Cell Lines: The pMS110 plasmid (pGL3-control plasmid from Promega which contains a neo selectable marker) was used to generate pMS110-5′UTR by cloning the 5′ UTR of FGF just upstream of the luciferase AUG start codon. FaDu cells, a head and neck cancer cell line, were transfected using Lipofectamine2000 (Invitrogen). Twenty-four hours after transfection G418 was added at 500 μg/ml. Cells were maintained in G418 for 14 days, and then individual colonies were transferred to a 96-well plate for propagation. Individual clones were analyzed for luciferase expression by plating 10^4 cells per well in a 96-well plate for 24 hours before lysing the cells and analyzing for luciferase activity in a Victor III (Perkin Elmer) or Lucy2 (Rosys Anthos). FaDu9000 and FaDuUTR were the clones that expressed the highest level of active luciferase following transfection of pMS110 and pMS110-5′UTR, respectively.
# Analysis of Rapamycin Responsiveness: Cells of FaDu9000 and FaDuUTR were plated at 1×10^4 cells/well in a 96-well dish. Twenty-four hours after plating, 0.1% DMSO (vehicle control) or 10 nM rapamycin were added to each well, and the cells were maintained for an additional 24 or 48 hours. The cells were then lysed and luciferase activity was determined using BriteGlo (Promega) as per manufacturer's instruction and recorded using the Victor III. Following subtraction of background activity, the mean value of quadruplicate samples for a given experiment was determined, and the treated cells were normalized to the control. At least four separate experiments were conducted, and the mean and standard error were calculated. To determine if rapamycin affected cell viability, an MTS assay (Cell Proliferation One Solution, Promega) was carried out on each population at 48 hours in two separate experiments.
# The FaDu cell line stably transfected with FGF 5′UTR was used to screen thirty-nine representative compounds, each at a concentration of 1.0 μM. Additional cells were treated with vehicle, 0.3% DMSO. Cells were plated for twenty-four hours in a 96-well plate. Each compound was then added to triplicate wells, and the cells were incubated for forty-eight hours before measuring luciferase activity as above. The mean luciferase activity was measured using Promega's Brite-Glo kit, and the mean for each sample was normalized to DMSO. The experiment was then repeated, and the average and standard deviation of the two experiments were determined (FIG. 8).
# [4] = test system: NF-κB; experiment: TNF-α-induced NF-κB-dependent luciferase expression in HEK cells; format: cell-based; set-up: NF-κB % inhibition: concentration or dose not given beside the values; conditions: for NF-κB % inhibition: TNF-α-induced, compound added 1 h before inducer, luciferase 24 h later, normalized to DMSO vehicle
# [5] = test system: AP-1; experiment: AP-1 inhibitor screen: basal AP-1-dependent luciferase expression in HEK/AP-1 cell line; format: cell-based; conditions: 10 nM-3300 nM (FIG. 14)
# Method in brief: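 Compound effects on unstimulated reporter signal were tested: 1.0 μM compound (0.3% DMSO) for 48 hr on HEK cells bearing an AP-1 (TGACTAA ×3)-luciferase construct, seeded 24 hr earlier. Triplicate luminescence means were normalized to DMSO-only wells; dose-response experiments were repeated 2–4 times.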
# [6] = test system: NF-κB; experiment: NF-κB inhibitor screen: basal NF-κB-dependent luciferase expression in HEK/NF-κB cell line; format: cell-based
# Method in brief: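 Basal NF-κB-driven luciferase (six-copy element, stable HEK293 line) was read with Brite-Glo. Compound was added in 0.3% DMSO 24 h post-plating, initially at 1.0 μM and then across 10–3300 nM in six steps, in triplicate wells. Signals were expressed relative to DMSO or to the lowest concentration tested.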
# [7] = test system: Human umbilical vein endothelial cells (HUVEC); experiment: LDH release cytotoxicity in HUVEC; format: cell-based; conditions: HUVEC, 10 μM, 48 h, relative to vehicle
# Protocol: (§1) Additional compounds have also been tested for their ability to inhibit both TNF-α-induced NF-κB—expression and PMA-induced AP-1 expression. In both tests, the compound was added for 1 h, then the appropriate inducer was added, and luciferase activity was monitored 24 h later. Values were then normalized to the vehicle control, DMSO. Following the initial luciferase screens, studies were conducted to assess the cytotoxicity of the compounds in normal cells such as VSMC, HUVEC, or HPT cells. Human umbilical vein endothelial cells (HUVEC) represent the normal endothelium, vascular smooth muscle cells (VSMC) were represented by cells from the adult rat aorta, and human proximal tubule (HPT) cells represent the normal proximal tubule in vivo. These cells were grown to near confluency in multi-well plates, and were then treated for 48 h with either vehicle (0.1% DMSO) or 10 μM of each drug candidate. Following treatment, the media from the VSMC and HUVEC incubations were removed, and the amount of lactate dehydrogenase (LDH) released into the medium was determined with a commercial kit. LDH is normally confined to the cytosol, and its release represents “leakiness” of the plasma membrane. LDH activity was expressed as % increase over vehicle-treated cells. In another assay of viability, the treated VSMC and HUVEC were removed by trypsinization and treated with trypan blue, a dye that is taken up only by dead cells. The number of both live and dead cells was counted using an automated cell viability analyzer. The % decrease in numbers of viable cells was determined. Toxicity in the treated HPT cells was determined by the ethidium homodimer (EthHD) uptake assay. EthHD is a fluorescent dye that is excluded from live cells, but is taken up by cells that have lost permeability barriers. Inside the cell, EthHD produces a strong fluorescent signal, which is proportional to the number of dead cells. Results were expressed as a % increase in cell death over vehicle-treated cells. The lead compounds were also tested in two pairs of cell lines from either the skin or prostate, one tumorigenic and one non-tumorigenic, to test for any differences in toxicity or heightened sensitivity in the tumorigenic lines. The cells were treated for 48 h with vehicle (0.1% DMSO) or 10 μM of each drug candidate. Following treatment, the viability of the cells was determined by the MTT assay. In this assay, the MTT dye is converted only in viable cells by intracellular enzymes to a colorimetric product that is quantitated by a microplate reader.
# (§2) For the results in Table 13, cells were grown to near confluency in multi-well plates, then treated for 48 h with either vehicle (0.1% DMSO) or 10 μM of each drug candidate. Following treatment, the media from the VSMC and HUVEC incubations were removed, and the amount of lactate dehydrogenase (LDH) released into the medium was determined with a commercial kit and expressed as a % increase over vehicle-treated cells. HPT toxicity was determined by the ethidium homodimer (EthHD) uptake assay. Inside the cell, EthHD produces a strong fluorescent signal, which is proportional to the amount of cell death, expressed as a % increase in cell death over vehicle-treated cells. The lead compounds were also tested in two pairs of cell lines from the skin or prostate, one tumorigenic and one non-tumorigenic, to test for differing toxicity or heightened sensitivity in the tumorigenic lines. The cells were treated for 48 h with vehicle (0.1% DMSO) or 10 μM of each drug candidate, and the viability of the cells was determined by the MTT assay, expressed as a % decrease in viability compared to vehicle-treated cells. The in vivo inflammation model measured the % inhibition of rat paw edema induced by carageenan injection.
# [8] = test system: human proximal tubule (HPT) cells; experiment: Ethidium homodimer (EthHD) uptake toxicity assay in HPT cells; format: cell-based; conditions: 10 μM, 48 h, relative to vehicle
# Protocol: as §1, §2
# [9] = test system: vascular smooth muscle cells (VSMC); experiment: LDH release cytotoxicity in VSMC; format: cell-based; conditions: VSMC, 10 μM, 48 h, relative to vehicle
# Protocol: as §1, §2
# [10] = test system: Human umbilical vein endothelial cells (HUVEC); experiment: Trypan blue viability count in HUVEC; format: cell-based; conditions: HUVEC, 10 μM, 48 h, relative to vehicle
# Protocol: as §1
# [11] = test system: vascular smooth muscle cells (VSMC); experiment: Trypan blue viability count in VSMC; format: cell-based; conditions: VSMC, 10 μM, 48 h, relative to vehicle
# Protocol: as §1
# [12] = test system: cell lines from the skin, one tumorigenic and one non-tumorigenic; experiment: MTT viability in skin cell line pair, tumorigenic and non-tumorigenic; format: cell-based
# Protocol: as §1, §2
compound,measurement,setting,value
Bis-(2-phenylamino-4-benzayl-thiazole-5-yl)-methanone [Example 133],AP-1 inhibition @ 1 uM,"[1]; 1 uM, luciferase in HEK/AP-1 cells, as described in Example 398",24.53
same,% Protection P,"[2]; rat paw edema, 50 mg/kg, reading 3 hours after carrageenan; [(Control−Test)/Control]×100%",19.09%
same,luciferase expression under the control of the FGF 5′UTR,[3],inhibited luciferase expression
same,NFkB inhibition @ 1 uM,"[4]; 1 uM, luciferase in HEK/NF-κB cells, as described in Example 398",17.74
"O=C(c1sc(Nc2ccccc2)nc1-c1ccccc1)c1sc(Nc2ccccc2)nc1-c1ccccc1 [Example 126, Bis-(2-phenylamino-4-phenyl-thiazole-5-yl)-methanone]",inhibition at 1 µM,"[1]; AP1, 1 uM, luciferase in HEK/AP-1 cells, as described in Example 398",27.1%
same,inhibition in vivo at 50 mg/kg,"[2]; Rattus norvegicus, po, 3 h, rat paw edema, 50 mg/kg, reading 3 hours after carrageenan; [(Control−Test)/Control]×100%; read-out: % Protection P",64.5%
same,luciferase expression under the control of the FGF 5′UTR,[3],increased luciferase expression
same,inhibition at 1 µM,"[4]; Homo sapiens, HEK293, 1 uM, luciferase in HEK/NF-κB cells, as described in Example 398, read-out: NFkB inhibition @ 1 uM",22.2%
2-(4-Methyl-2-methylamino-thiazol-5-yl)-3-(4-chloro-phenyl)-3H-quinazolin-4-one [Example 244],"basal AP-1-dependent luciferase, six-point dose response",[5],substantial activity at submicromolar concentrations
same,luciferase expression under the control of the FGF 5′UTR,[3],inhibited luciferase expression
same,inhibition of highly cap-dependent translation (summary statement),[3]; summary in the disclosure,capable of inhibiting
same,"basal NF-κB-dependent luciferase, six-point dose response","[6]; 10 nM-3300 nM (FIG. 12), listed as Compound 4",substantial activity at submicromolar concentrations; also recorded: robust inhibition
same,inhibition of basal NF-κB-dependent luciferase expression,[6]; 3.3 μM (FIG. 12),about 50%
same,inhibition of NF-κB (summary statement),[6]; summary in the disclosure,capable of inhibiting
CC(=O)c1ccc(-n2c(-c3cc(-c4ccncc4)c(N4CCOCC4)s3)nc3ccccc3c2=O)cc1 [PMCR242],LDH release % Increase HUVEC,[7],61# %
same,AP-1 % inhibition,[1],84** %
same,Cell Death (EthHD) % Increase HPT,[8],50# %
same,LDH release % Increase VSMC,[9],68# %
same,Viable Cells % Decrease HUVEC,[10],60# %
same,Viable Cells % Decrease VSMC,[11],90# %
same,NF-κB % inhibition,[4],66** %
same,Viability (MTT) % Decrease HaCaT,[12],−28%
same,Viability (MTT) % Decrease SRB12-p9,[12],14%
Cc1ccccc1-n1c(-c2cc(-c3ccncc3)c(N3CCOCC3)s2)nc2ccccc2c1=O [PMCR188],LDH release % Increase HUVEC,[7],160# %
same,AP-1 % inhibition,[1],0%
same,Cell Death (EthHD) % Increase HPT,[8],250# %
same,LDH release % Increase VSMC,[9],148# %
same,Viable Cells % Decrease HUVEC,[10],60# %
same,Viable Cells % Decrease VSMC,[11],92# %
same,NF-κB % inhibition,[4],53%
same,Viability (MTT) % Decrease HaCaT,[12],0%
same,Viability (MTT) % Decrease SRB12-p9,[12],0%
N-{4-{5-[4-(4-acetylamino-phenyl)-5-morpholin-4-yl-thiophene-2-carbonyl]-2-morpholin-4-yl-thiophene-3-yl}-phenyl)-acetamide [Example 113],luciferase expression under the control of the FGF 5′UTR,[3],increased luciferase expression
Cc1ccccc1-n1c(-c2sc(Nc3ccccc3)nc2C)nc2ccccc2c1=O [PMCR20],LDH release % Increase HUVEC,[7],17%
same,AP-1 % inhibition,[1],73** %
same,Cell Death (EthHD) % Increase HPT,[8],109# %
same,LDH release % Increase VSMC,[9],9%
same,Viable Cells % Decrease HUVEC,[10],28# %
same,Viable Cells % Decrease VSMC,[11],34# %
same,NF-κB % inhibition,[4],21%
same,Viability (MTT) % Decrease HaCaT,[12],6%
same,Viability (MTT) % Decrease SRB12-p9,[12],14%
"COc1ccc(C(=O)c2sc(Nc3ccccc3)nc2N)cc1 [Example 115, (4-Amino-2-phenylamino-thiazole-5-yl)-4-(methoxy-phenyl)-methanone]",% Protection P,"[2]; rat paw edema, 50 mg/kg, reading 3 hours after carrageenan; [(Control−Test)/Control]×100%; 50 mg/kg",90.92%
same,luciferase expression under the control of the FGF 5′UTR,[3],increased luciferase expression
same,basal NF-κB-dependent luciferase expression,[6]; 1.0 μM screen of 39 compounds (FIG. 11),potentiated expression in one of the two experiments

# — US8829014B2, “Thiazole and thiophene analogues, and their use in treating autoimmune diseases and cancers” (Board of Supervisors of Louisiana State University and …, priority 2006, dated 2014)
